Data reported in US12421489B2, “Biological control of plant pathogenic microorganisms” (priority 2016, dated 2025).

What was measured:
Monilinia fructicola = test: Cherry inoculation assays 1 and 3: Monilinia fruit rot of ‘Sweet Valentine’ cherries, dip treatment; assay type: in vivo; conditions: Assay 1, cherries, cumulative after 13 days; Nil 50%; reductions not significant
Description: Fruit-based screening assays were conducted in laboratories at the Plant and Food Research Ruakura Research Centre, Hamilton, New Zealand (PFR). PFR assays focused on dip treatment application of YBCA5 and fungicide controls.
Fruit for Monilinia fructicola and Botrytis spp. inoculation assays were carried out on sweet cherries (Prunus avium ‘Sweet Valentine’) that were picked at the harvest mature stage and sourced from the PFR Clyde Research Orchard in Central Otago on 8 Jan. 2016 for fruit based assays 1 and 2. A second harvest was carried out on 13 Jan. 2016 for fruit based assays 3 and 4.
Each cherry was then subjected to a double wash process. Wash one consisted of 10 minutes in tap water on a rotary shaker (110 rpm) followed by a five minute wash in SDW (Wash 2). […]
A Monilinia fructicola culture (isolate code MFGQ3), which had been originally isolated from an infected peach tree located in the Hamilton region during 1998, was used for the spray inoculation assays included in this section (Ruakura based assay). […] This stock suspension was then filtered using a 70 μm cell strainer (to remove mycelial fragments), the concentration determined using a haemocytometer and then adjusted, by dilution with SDW+Tw 80 (0.05%) to a final concentration of 1×10^4 conidia/mL. […]

Penicillium spp. = test: Assay 8: wound protection of ‘Hongyang’ kiwifruit, Penicillium spp.; assay type: in vivo; conditions: wounded ‘Hongyang’ kiwifruit, treatment 24 h before Penicillium, 6 days incubation
Description: The kiwifruit ‘Hongyang’-based screening assays (assays 8 and 9) were conducted in laboratories at the Plant and Food Research Ruakura Research Centre, Hamilton, New Zealand (PFR). PFR assays focused on wound application of YBCA5 treatment, a commercial biological control treatment and a fungicide were used as comparative controls.
The ‘Hongyang’ kiwifruit were sourced from the PFR Riwaka Research Orchard in Motueka on 12 Apr. 2017 for fruit based assays 8 and 9. Penicillium spp. Phomopsis spp., Alternaria spp., Colletotrichum spp., Cryptosporiopsis spp. and Botrytis spp. inoculation assays were carried out on ‘Hongyang’ kiwifruit that were picked at the harvest mature stage. […]
For assays 8 and 9, two sterile paper towels were placed beneath Plix cut-outs, moistened with 40 mL SDW and each fruit placed in disposable lunch boxes (Plix Extra Deep 45/45, containing five Plix fruit cut-outs to prevent fruit from moving), sealed, then placed into large (40 L) plastic bins which were closed to ensure high relative humidity for the first 24 h and incubated on the lab bench at 24° C. […] After 6 days, (Alternaria spp. Botrytis spp., Penicillium spp., Phomopsis spp., Colletotrichum spp.) and 7 days (Cryptosporiopsis spp.), the severity of fungal rot was assessed for each treatment by measuring the lesion length (mm) along the axis of the fruit. […]

In the case of CC(C)NC(=O)N1CC(=O)N(c2cc(Cl)cc(Cl)c2)C1=O [iprodione], the “incidence of Monilinia fruit rot” value (Monilinia fructicola) is reported as 22% and the “lesion size, comparison between treatments” value (Penicillium spp.) is reported as “significantly smaller than the untreated control”.
